# In PubChem BioAssay (NCI):
# Several values for one entry are separate records, joined by “and”; a condition that tells them apart may be missing. Equal entries are not always repeated.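 Protocol summary: plate cells (96-well), add compound at 5 concentrations, incubate 48 h, interpolate endpoints linearly. Here, GI50 denotes the concentration required for 50% inhibition of growth. TGI denotes the concentration required for complete inhibition of growth.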
# Assays:
# Assay in all cases: NCI anticancer screen, dose series, 48 h
# [1] = test system: MDA-MB-435
# [2] = test system: RXF 393 renal
# [3] = test system: NCI-H23 lung
# [4] = test system: HT29 colon
# [5] = test system: MALME-3M melanoma
# [6] = test system: SK-MEL-5 melanoma
# [7] = test system: UACC-62 melanoma
# [8] = test system: OVCAR-3 ovarian
# [9] = test system: SW-620 colon
# [10] = test system: HCT-15 colon
Structure (SMILES),GI50 [1] [µM],TGI [1],GI50 [2] [µM],TGI [2],GI50 [3] [µM],TGI [3],GI50 [4] [µM],TGI [4],GI50 [5] [µM],TGI [5],GI50 [6] [µM],TGI [6],GI50 [7] [µM],TGI [7],GI50 [8] [µM],TGI [8],GI50 [9] [µM],TGI [9],GI50 [10] [µM],TGI [10]
CC1CN1CC(O)C(O)CN1CC1C (stereo not given),4.93,24.8 µM,2.04,8.77 µM,2.37,> 75.4 µM,2.87,19.7 µM,2.13,13.7 µM,3.3,14.8 µM,2.99,> 53.2 µM,2.52,10.7 µM,2.47,> 62 µM,4,46 µM
O=C(N/N=C/c1cccc(O)c1O)c1ccccc1,1.88,> 100 µM,1.98,> 100 µM,0.992,> 100 µM,4.9,> 100 µM,1.35,35.8 µM,0.626,> 22.7 µM,0.902,5.32 µM,0.369,> 100 µM,0.635,> 100 µM,0.466,> 100 µM
CC(=O)OC1CC(O)C23COC(O)C1(C)C2CC(O)C1(C)C3C(=O)C(O)C2(C)C(c3ccoc3)CC3OC321 (stereo not given),< 0.0152,> 100 µM,> 100,> 100 µM,–,> 100 µM,< 0.01,> 33.3 µM,–,–,< 0.01,–,< 0.01,< 0.0129 µM,41.2,> 100 µM,0.0323,> 100 µM,1.26,> 100 µM
CCCCCCCC(CC(=O)NC(CO)C(=O)NC(CO)CC(C)C)OC(=O)CC(CCCCCCC)OC(=O)CC(CCCCCCC)OC1OC(C)C(O)C(OC2OC(C)C(O)C(OC(C)=O)C2O)C1O (stereo not given),–,23 µM,–,20.9 µM,–,27.9 µM,–,20.4 µM,–,33.4 µM,–,25.1 µM,–,25.8 µM,–,23 µM,–,28.8 µM,–,–
COc1ccc2c(c1)C(=O)c1c-2n(CCCn2ccnc2)c(=O)c2ccccc12,0.67,3.24 µM,0.431,2 µM,0.284,7.86 µM,–,–,1.25,6.44 µM,0.154,0.344 µM,0.403,1.86 µM,0.901,–,0.247,7.59 µM,1.24,7.72 µM
CCOC(=O)c1cc(/C(=N\O)c2cc(OC)c(OC)c(OC)c2)n2cc(C)cc(C)c12,0.565,4.16 µM,1.95,5.26 µM,2.81,> 100 µM,3.08,> 100 µM,1.44,3.98 µM,2.19,5.79 µM,–,–,1.74,4.33 µM,2.56,> 100 µM,2.82,> 100 µM
CCN1C(=O)CNc2ncc(-c3ccc(-c4ncn[nH]4)nc3C)nc21,0.162,1.63 µM,0.0476,0.371 µM,0.238,8.27 µM,0.317,11.6 µM,0.0227,0.221 µM,0.0864,0.792 µM,0.0777,0.587 µM,0.189,4.49 µM,0.439,12.1 µM,0.202,10.9 µM
O=C(CCl)Nc1ccc(Cl)cc1,4.4,20.4 µM,2.14,4.43 µM,3.29,14.3 µM,2.03,4.26 µM,3.33,13.2 µM,1.71,3.16 µM,3.6,17 µM,1.88,3.62 µM,3.45,11.2 µM,2.27,6.33 µM
O=C1NC(=O)c2ccc([N+](=O)[O-])c3cccc1c23,–,29.9 µM,–,29.1 µM,–,33.7 µM,–,39.3 µM,–,–,–,34.6 µM,–,27 µM,–,–,–,25.7 µM,–,22.4 µM
NCCCC[C@@H]1NC(=O)[C@H]2CCCN2C(=O)[C@H](Cc2ccccc2)NC(=O)[C@H](Cc2ccccc2)CNC1=O,> 100,> 100 µM,> 100,> 100 µM,> 100,> 100 µM,> 100,> 100 µM,> 100,> 100 µM,> 100,> 100 µM,> 100,> 100 µM,> 100,> 100 µM,> 100,> 100 µM,> 100,> 100 µM
COc1ccc(N2C(=O)C3c4[nH]c5ccc(C)cc5c4C4CCC(C(C)(C)C)CC4C3C2=O)cc1 (stereo not given),–,> 100 µM,–,38.8 µM,–,86.5 µM,–,> 100 µM,–,–,–,> 100 µM,–,29.7 µM,–,32 µM,–,69.8 µM,–,> 100 µM
CC(C)c1ccc(C(=O)Nc2sc3c(c2C(N)=O)CCC(=O)C3)cc1,1.49,3.62 µM,0.354,1.49 µM,0.381,2.45 µM,0.484,5.34 µM,1.65,4.79 µM,1.14,2.56 µM,0.46,1.91 µM,0.421,1.51 µM,0.256,1.6 µM,0.387,2.12 µM
CC1(C)C2CC(O)C1(C)CC2=O (stereo not given),–,> 100 µM,–,> 100 µM,–,> 100 µM,–,> 100 µM,–,> 100 µM,–,> 100 µM,–,> 100 µM,–,> 100 µM,–,> 100 µM,–,> 100 µM
Cc1cc(C)c(C(=O)CC(=O)c2cccnc2)c(C)c1,7.48,> 100 µM,10.7,60.2 µM,11.1,> 100 µM,4.85,> 100 µM,14.1,> 100 µM,7.56,> 100 µM,4.52,41.8 µM,5.78,77.4 µM,4.72,> 100 µM,3.36,> 100 µM
COc1ccc2c(c1)C=C([N+](=O)[O-])C(C1OC(C)(C)OC1C1COC(C)(C)O1)O2 (stereo not given),–,14.8 µM,–,8.7 µM,–,24.2 µM,–,4.34 µM,–,6.15 µM,–,9.17 µM,–,3.72 µM,–,21.8 µM,–,6.81 µM,–,5.2 µM
CCC1(O)C(=O)OCc2c1cc1n(c2=O)Cc2cc3ccc(C=O)cc3nc2-1 (stereo not given),5.9,31.2 µM and 35.7 µM,4.92,20.8 µM and 13.1 µM,0.816,2.71 µM and 16.7 µM,–,16.5 µM and > 89 µM,13.2,50 µM and 41.2 µM,1.57,6.95 µM and 6.23 µM,0.77,3.44 µM and 3.71 µM,5.05,30.6 µM and 23.4 µM,–,50 µM and > 100 µM,–,40.2 µM and > 62.4 µM
COc1ccc(OC)c(/C=C/C(=O)N/N=C/c2ccc(Cl)cc2)c1,0.0263,0.106 µM,0.0363,0.268 µM,0.105,–,0.0388,4.65 µM,–,–,0.0363,12.6 µM,0.058,> 100 µM,0.0285,0.0875 µM,0.0577,> 100 µM,0.0736,> 100 µM
CC(=O)OC1Oc2ccccc2-c2oc(=O)c(-c3cc4ccc(N(C)C)cc4oc3=O)cc21 (stereo not given),13.3,46.8 µM,3.54,15.2 µM,10.6,23.7 µM,22,> 100 µM,3.7,11.1 µM,3.46,15.4 µM,14.3,29.5 µM,10.1,23.2 µM,20.6,> 100 µM,24.3,> 100 µM
CCCCN=C(N)c1ccc(OCCSCCOc2ccc(C(N)=NCCCC)cc2)cc1,3.35,> 100 µM,43.2,> 100 µM,2.87,> 100 µM,2.79,> 100 µM,2.97,26.4 µM,1.28,14.4 µM,6.12,> 100 µM,4.97,> 100 µM,10.2,> 100 µM,> 100,> 100 µM
Nc1ncc(-c2cnn(CCO)c2)c2scc(-c3ccc(NC(=O)Nc4cccc(F)c4)cc3)c12,0.209,1.83 µM,0.241,1.13 µM,0.211,2.3 µM,0.283,2.07 µM,0.132,1.38 µM,1.03,2.35 µM,0.37,1.78 µM,1.16,5.87 µM,0.179,3.74 µM,0.371,14.3 µM
CCc1[nH]c(=O)nc(N)c1-c1ccc(N2CCCCC2)c([N+](=O)[O-])c1,–,> 100 µM,–,> 100 µM,–,> 100 µM,–,> 100 µM,–,–,–,> 100 µM,–,> 100 µM,–,> 100 µM,–,> 100 µM,–,> 100 µM
COC(=O)C(=O)C(C(=O)C(=O)Nc1ccccc1C(N)=O)c1nc2ccc(Cl)cc2[nH]c1=O (stereo not given),–,> 100 µM,–,> 100 µM,–,> 100 µM,–,> 100 µM,–,–,–,> 100 µM,–,> 100 µM,–,> 100 µM,–,> 100 µM,–,> 100 µM
NC(N)=NCCCn1c2c(c3ccccc3c1=O)C(=O)c1ccccc1-2,25.9,71.5 µM,7.82,42.4 µM,–,–,32.6,> 100 µM,18.6,45.1 µM,15.1,29.5 µM,10.9,25.7 µM,18.3,45.4 µM,14.5,31 µM,–,–
COc1cc(OC)c(/C=C/C(=O)c2c(OC)cccc2OC)c(OC)c1,0.263,1.09 µM,0.561,2.17 µM,1.46,> 27.6 µM,0.398,> 100 µM,0.45,> 100 µM,0.348,2.49 µM,0.362,3.06 µM,0.431,–,0.375,> 32.6 µM,0.482,> 100 µM
CN(C)CCCn1c2c(c3ccccc3c1=O)C(=O)c1ccccc1-2,2.82,12 µM,5.38,49.3 µM,1.75,8.39 µM,0.749,4.51 µM,2.31,5.71 µM,–,–,0.516,1.96 µM,1.67,6.79 µM,0.771,10.8 µM,1.85,12 µM
NC(=S)N/N=C/c1ccc(OC(=O)COc2ccc(Cl)cc2)cn1,5.89,> 100 µM,5.48,> 100 µM,3.67,> 100 µM,7.19,> 100 µM,12.2,> 100 µM,3.24,23.6 µM,4.17,60 µM,–,–,3.29,> 100 µM,22.9,> 100 µM
Fc1cc(F)c(COc2cc(Cn3cnc4c(Cl)nc(Cl)nc43)ccc2C23CC4CC(CC(C4)C2)C3)cc1F,17.3,33 µM,15.3,29.7 µM,–,–,23.6,62.5 µM,1.92,4.75 µM,1.68,3.53 µM,12.5,25.2 µM,15.6,30.2 µM,12.3,29.3 µM,16,31.9 µM
Cc1nc2ccccc2c(=O)n1NC(=O)c1ccccn1,–,> 100 µM,–,> 100 µM,–,> 100 µM,–,> 100 µM,–,> 100 µM,–,> 100 µM,–,> 100 µM,–,> 100 µM,–,> 100 µM,–,–
Cc1ccc(/C(=C/C=C(C#N)C#N)Sc2ccc(Cl)cc2)cc1,3.02,10.7 µM,11.9,39.2 µM,9.54,23.4 µM,–,–,12.2,30.5 µM,12,25.9 µM,5.3,23.1 µM,2.31,9.34 µM,3.53,10.7 µM,4.12,23.1 µM
